Measurements from ChEMBL document CHEMBL2396625 (Bioorg Med Chem Lett, 2013).
Active and inactive are the calls of the source. The rule behind the calls is not given here.

Columns and labels:
DLD-1 [1] = assay: Antiinvasive activity against human DLD1 cells overexpressing PRL3 assessed as decrease in snail expression at […] after 24 hrs by immunoblot analysis; assay type: functional, cell-based
DLD-1 [2] = assay: Antiinvasive activity against human DLD1 cells overexpressing PRL3 assessed as increase in E-cadherin expression at 10 to 50 uM after 24 hrs by immunoblot analysis; assay type: functional, cell-based
[3] = target: T1, Tyrosine-protein phosphatase non-receptor type 2 (Homo sapiens) (UniProt P17706); assay: Inhibition of TCPTP (unknown origin) using DiFMUP as substrate at 5 uM relative to control
T1 sequence (whole entry): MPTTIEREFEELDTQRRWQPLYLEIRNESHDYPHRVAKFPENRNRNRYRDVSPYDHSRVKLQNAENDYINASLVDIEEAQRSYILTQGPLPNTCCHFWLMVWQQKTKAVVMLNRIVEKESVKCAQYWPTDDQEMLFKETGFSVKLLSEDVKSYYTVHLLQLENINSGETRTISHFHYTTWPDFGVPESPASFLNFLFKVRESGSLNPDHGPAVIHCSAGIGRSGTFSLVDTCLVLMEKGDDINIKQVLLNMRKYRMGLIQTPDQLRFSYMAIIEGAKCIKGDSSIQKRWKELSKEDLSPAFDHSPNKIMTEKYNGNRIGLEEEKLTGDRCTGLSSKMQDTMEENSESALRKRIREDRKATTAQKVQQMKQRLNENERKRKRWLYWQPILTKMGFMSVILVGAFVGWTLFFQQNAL

[4] = target: T2, Protein tyrosine phosphatase type IVA 3 (Homo sapiens, UniProt O75365); assay: Inhibition of His6-tagged full length human PRL3 using DiFMUP as substrate at 5 uM relative to control
[5] = target: T3, Receptor-type tyrosine-protein phosphatase C (Homo sapiens) (UniProt P08575); assay: Inhibition of CD45 (unknown origin) using DiFMUP as substrate at 5 uM relative to control
T3 sequence (whole entry): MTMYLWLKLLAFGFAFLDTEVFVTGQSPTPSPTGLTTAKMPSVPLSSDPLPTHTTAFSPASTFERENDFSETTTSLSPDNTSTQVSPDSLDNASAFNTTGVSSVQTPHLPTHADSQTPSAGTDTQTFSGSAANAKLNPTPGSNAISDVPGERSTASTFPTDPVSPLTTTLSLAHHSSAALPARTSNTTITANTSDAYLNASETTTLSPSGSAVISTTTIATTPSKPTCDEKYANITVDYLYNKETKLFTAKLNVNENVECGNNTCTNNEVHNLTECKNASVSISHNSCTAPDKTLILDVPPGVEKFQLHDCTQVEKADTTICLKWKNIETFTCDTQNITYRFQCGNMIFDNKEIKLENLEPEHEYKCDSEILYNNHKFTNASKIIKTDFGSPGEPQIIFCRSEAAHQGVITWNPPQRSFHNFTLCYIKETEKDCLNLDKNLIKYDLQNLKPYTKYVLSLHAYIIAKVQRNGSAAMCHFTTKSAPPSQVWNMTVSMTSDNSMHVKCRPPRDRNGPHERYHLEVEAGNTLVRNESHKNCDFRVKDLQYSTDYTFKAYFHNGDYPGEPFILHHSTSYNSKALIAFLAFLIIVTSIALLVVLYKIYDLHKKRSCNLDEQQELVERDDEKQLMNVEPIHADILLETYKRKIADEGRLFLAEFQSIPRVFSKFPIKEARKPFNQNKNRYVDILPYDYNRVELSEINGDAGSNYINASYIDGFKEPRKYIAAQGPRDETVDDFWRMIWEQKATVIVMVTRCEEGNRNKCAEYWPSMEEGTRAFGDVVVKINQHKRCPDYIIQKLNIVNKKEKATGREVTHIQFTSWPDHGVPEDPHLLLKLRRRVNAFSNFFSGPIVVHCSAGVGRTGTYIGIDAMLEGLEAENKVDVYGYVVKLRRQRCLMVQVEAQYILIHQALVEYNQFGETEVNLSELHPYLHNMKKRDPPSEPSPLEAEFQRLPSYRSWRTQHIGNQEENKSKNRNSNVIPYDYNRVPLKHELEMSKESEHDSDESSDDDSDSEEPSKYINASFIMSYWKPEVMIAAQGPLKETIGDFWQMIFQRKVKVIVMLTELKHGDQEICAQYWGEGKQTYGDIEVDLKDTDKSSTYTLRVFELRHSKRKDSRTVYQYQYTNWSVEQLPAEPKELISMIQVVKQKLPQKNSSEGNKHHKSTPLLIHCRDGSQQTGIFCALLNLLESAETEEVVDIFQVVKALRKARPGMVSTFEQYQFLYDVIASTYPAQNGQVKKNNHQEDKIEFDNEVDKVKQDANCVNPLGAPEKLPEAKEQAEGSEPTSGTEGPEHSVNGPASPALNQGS

MIA PaCa-2 = assay: Antimigratory activity against human MIAPaCa2 cells overexpressing PRL3 at 10 to 20 uM after 20 hrs by crystal violet staining-based light microscopic analysis; assay type: functional, cell-based
[6] = target: T2, Protein tyrosine phosphatase type IVA 3; assay: Inhibition of PRL3 in human DLD1 cells assessed as increase in phospho-KRT8 level at 10 to 20 uM by immunoblot analysis; assay type: cell-based; settings: DLD-1
[7] = target: T2, Protein tyrosine phosphatase type IVA 3; assay: Inhibition of PRL3 in human DLD1 cells assessed as increase in phospho-ezrin level at 20 uM by immunoblot analysis relative to control; assay type: cell-based; settings: DLD-1
[8] = Cytotoxicity against human DLD1 cells overexpressing PRL3 assessed as cell viability at 10 ug/ml after 24 hrs by WST-1 assay relative to control; assay type: cell-based; settings: DLD-1 cells overexpressing PRL3, read-out: Activity
DLD-1 [9] = assay: Antiinvasive activity against human DLD1 cells overexpressing PRL3 at 20 uM after 20 hrs by crystal violet staining-based light microscopic analysis relative to control; assay type: functional; settings: DLD-1, 20 h
DLD-1 [10] = assay: Antimigratory activity against human DLD1 cells overexpressing PRL3 by crystal violet staining-based light microscopic analysis; assay type: functional, cell-based
[11] = target: T2, Protein tyrosine phosphatase type IVA 3; assay: Inhibition of human His6-tagged full length PRL3 assessed as inhibition of DiFMUP dephosphorylation
[12] = target: T2, Protein tyrosine phosphatase type IVA 3; assay: Inhibition of human His6-tagged full length PRL3 assessed as inhibition of DiFMUP dephosphorylation at 5 ug/ml relative to control

T2 sequence (O75365 whole entry): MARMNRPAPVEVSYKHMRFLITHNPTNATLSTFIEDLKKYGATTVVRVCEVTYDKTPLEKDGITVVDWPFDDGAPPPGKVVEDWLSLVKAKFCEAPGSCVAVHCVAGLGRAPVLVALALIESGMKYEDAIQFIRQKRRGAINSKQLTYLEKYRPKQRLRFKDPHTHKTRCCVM

| SMILES | Activity (DLD-1 [1]) | Activity (DLD-1 [2]) | inhibition [3] | inhibition [4] | inhibition [5] | Activity (MIA PaCa-2) | inhibition [6] | fold change (FC) [7] | viability at 24 h, 10 ug/ml [8] | inhibition at 20 µM (DLD-1 [9]) | IC50 (DLD-1 [10]) | inhibition (DLD-1 [10]) | IC50 [11] | inhibition [11] | inhibition [12] |
| --- | --- | --- | --- | --- | --- | --- | --- | --- | --- | --- | --- | --- | --- | --- | --- |
| COc1ccccc1COc1ccccc1/C=C/C=C1\SC(=S)NC1=O | Active | Active | 1% | 73% | 11% | Active | Active | > 3 | 99.5% | > 60% | 5 µM | Dose-dependent effect | 0.8 µM | Dose-dependent effect | 78.8% |
| O=C1NC(=S)S/C1=C\c1cc(Br)ccc1OCc1ccccc1Br | – | – | 9% | – | 12% | Active | – | – | 98.1% | > 60% | 7 µM | Dose-dependent effect | – | – | – |
